# Laboratory results taken from patent US6596863B2, “Medical composition containing nitroetheneamine Derivative or salt there of as active constituent” (Ishihara Sangyo Kaisha, Ltd., priority 1998, dated 2003).
# Where two headings read alike, the source gives them in different places.
# Key:
# [1] = biological target: T1, human MMP-9 (gelatinase B) (Homo sapiens, UniProt P14780); assay: Inhibition activity against human MMP-9 (gelatinase B), fluorescent peptide substrate; type: biochemical
# T1 construct: endogenous in cells; host or cells: HT1080 human fibrosarcoma cells (ATCC CCL-121), PMA-stimulated; enzyme purified from the culture supernatant
# Description: Human MMP-9 (gelatinase B) was purified by the following method from a culture supernatant of HT1080 cells (human fibrosarcoma).
# 2.5×10^6 HT1080 cells (ATCC CCL-121, purchased from Dainippon Seiyaku) were inoculated to a tissue culture dish (Code No. 3020-100, manufactured by Iwaki Glass Co., Ltd.) having a diameter of 10 cm and containing 10 ml of Dulbecco's Modified Eagle Medium (DME, No. D-5648, manufactured by Sigma Co.) containing 10% fetal bovine serum (FBS: REHATUIN™, Code No. 1020-90, manufactured by Intergen Co.) and cultured for 72 hours at 37° C. in an atmosphere comprising 5% of CO2 and 95% of air (Carbon Dioxide Incubator LNA-122D Model, manufactured by Tabai Co.). Then, the medium was changed to 10 ml of a DME culture medium containing no FBS, and phorbol 12-myristate 13-acetate (PMA, code No. 163-114851, manufactured by Wako Pure Chemical Industries, Ltd.) was added so that the final concentration became 10 ng/ml. Under the same conditions, the culturing was carried out for further 20 hours, whereupon the culture supernatant was collected and subjected to cool centrifugation at 4° C. for 5 minutes (cool centrifugal separator, manufactured by Hitachi) to remove cell fragments.
# The pH of a conditioned medium (50 ml) containing MMP-9, thus prepared, was adjusted to 8.0 with 0.2N NaOH. […] Namely, the above-mentioned conditioned medium was passed through DEAE-Sephacel (manufactured by Pharmacia, gel volume: about 35 ml) preliminarily equilibrated with 50 mM Tris-HCl, pH 8.0 (A buffer), and a non-adsorption fraction was collected. Then, it was added to Dye Matrix Gel Green A (manufactured by Amicon Co., gel volume: about 6 ml) preliminarily equilibrated with 50 mM Tris-HCl, pH 7.5/10 MM CaCl2/0.05% Brij 35/0.02% NaN3 (B buffer) and thoroughly washed with the same buffer, whereupon the adsorbed enzyme was eluted with a 1M NaCl-containing B buffer. About 7.5 ml of the eluted fraction was diluted twice with the B buffer and added to Gelatin-Sepharose 4B (manufactured by Pharmacia, gel volume: about 6 ml) preliminarily equilibrated with a 0.5 M NaCl-containing B buffer. It was thoroughly washed with a 0.5M NaCl-containing B buffer, and eluted with the B buffer containing 10% of dimethylsulfoxide (DMSO) and 0.5 M of NaCl. 5.5 ml of the eluted fraction was dialyzed against a 0.1 M NaCl-containing B buffer to obtain 5.2 ml of a purified enzyme solution. The purified MMP-9 standard product was confirmed to have a single band of 92 kDa by a protein staining by SDS electrophoresis, and further, it was confirmed to have an adequate gelatin decomposing activity by gelatinzymography (carried out in accordance with a method by Howard E. W. et al; Journal Biological Chemistry, Vol. 266, 13064-13069, 1991) and to have an adequate substrate decomposing activity by the after-mentioned measurement employing a fluorescent peptide substrate specific to MMP.
# The inhibition activity against human MMP-9 was measured by the following method in accordance with the method by C. G. Knight et al (FEBS Letters, Vol, 296, 263-266, 1992) employing a fluorescent peptide substrate (7-methoxycoumarin-4-yl)Acetyl-Pro-Leu-Gly-Leu-(3-[2,4-dinitrophenyl]—Ala—Arg-NH2, Code 3163-VC, manufactured by Peptide Institute, Inc.
# Further, as the case requires, commercially available human MMP-9 purified enzyme (No. YU-18003, manufactured by Kabushiki Kaisha Yagai Chuo Kenkyusho; used in a final concentration of from 0.0125 to 0.025 unit/ml, No. CC079, manufactured by Chemicon International, Inc.; used in a final concentration of 0.2 μg/ml) was used for the tests. […]
# [2] = compounds of the formula (I), 1st measurement, read-out: MMP-9 inhibition activities IC50, 1st
# [3] = compounds of the formula (I), 2nd measurement, read-out: MMP-9 inhibition activities IC50, 2nd
# [4] = compounds of the formula (I), average of 1st and 2nd (or single measurement), read-out: MMP-9 inhibition activities IC50, Average
# [5] = intermediates, compounds of the formula (IV), 1st measurement, read-out: MMP-9 inhibition activities IC50, 1st
# [6] = intermediates, compounds of the formula (IV), 2nd measurement, read-out: MMP-9 inhibition activities IC50, 2nd
# [7] = intermediates, compounds of the formula (IV), average of 1st and 2nd (or single measurement), read-out: MMP-9 inhibition activities IC50, Average
# T1 sequence (P14780 107-707 limits assumed): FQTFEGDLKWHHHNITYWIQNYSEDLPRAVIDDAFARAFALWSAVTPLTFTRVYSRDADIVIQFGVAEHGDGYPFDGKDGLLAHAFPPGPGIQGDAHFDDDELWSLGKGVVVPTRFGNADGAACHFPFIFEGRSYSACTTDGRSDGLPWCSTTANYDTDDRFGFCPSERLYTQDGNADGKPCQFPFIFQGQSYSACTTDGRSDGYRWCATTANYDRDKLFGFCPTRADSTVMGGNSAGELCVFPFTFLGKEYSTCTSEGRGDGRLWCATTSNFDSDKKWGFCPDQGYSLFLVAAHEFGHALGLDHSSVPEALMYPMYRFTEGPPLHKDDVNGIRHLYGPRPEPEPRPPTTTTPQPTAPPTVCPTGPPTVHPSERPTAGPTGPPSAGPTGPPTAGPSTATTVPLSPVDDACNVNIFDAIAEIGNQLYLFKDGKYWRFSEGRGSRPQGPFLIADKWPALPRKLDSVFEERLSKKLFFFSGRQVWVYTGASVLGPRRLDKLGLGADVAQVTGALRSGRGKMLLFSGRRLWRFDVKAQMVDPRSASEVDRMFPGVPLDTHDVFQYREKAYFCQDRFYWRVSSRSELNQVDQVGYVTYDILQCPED
"IC50 [1, 2]","IC50 [1, 3]","IC50 [1, 4]",melting point,"IC50 [1, 5]","IC50 [1, 6]","IC50 [1, 7]",SMILES
15.1 µM,13.7 µM,14.4 µM,155 to 157 °C,,,,COc1ccc(NC(=C[N+](=O)[O-])NNc2ccc(C(F)(F)F)cn2)cc1 [compound 41]
20.6 µM,18.2 µM,19.4 µM,191 °C (dec.),,,,Cc1ccc(NC(=C[N+](=O)[O-])NN)cc1 [compound 48]
38.3 µM,41.8 µM,40.1 µM,210 °C (dec.),,,,NNC(=C[N+](=O)[O-])NS(=O)(=O)c1ccccc1 [compound 156]
,,,82 to 87.5 °C,21.3 µM,37.3 µM,29.3 µM,CSC(=C[N+](=O)[O-])NC1CCCC1 [Intermediate 3]
,,,75 to 77 °C,4.5 µM,,4.5 µM,CSC(=C[N+](=O)[O-])NS(=O)(=O)c1ccc(-c2ccccc2)cc1 [Intermediate 62]
8.3 µM,,8.3 µM,171 °C (dec.),,,,CNC(=C[N+](=O)[O-])NN=Cc1ncc(C(F)(F)F)cc1Cl [compound 179]
24.5 µM,21.3 µM,22.9 µM,165 to 167 °C (dec.),,,,CNC(=C[N+](=O)[O-])NNc1ncc(C(F)(F)F)cc1[N+](=O)[O-] [compound 96]
15.4 µM,20.6 µM,18 µM,140 to 143 °C,,,,NNC(=C[N+](=O)[O-])NCc1ccccc1 [compound 92]
20.5 µM,30 µM,25.3 µM,180 to 181 °C (dec.),,,,CNC(=C[N+](=O)[O-])NNc1cc(C(F)(F)F)nc(C(F)(F)F)c1 [compound 99]
,,,193 °C (dec.),25.3 µM,24.5 µM,24.9 µM,CSC(=C[N+](=O)[O-])Nc1ccc(O)cc1 [Intermediate 12]
11.1 µM,,11.1 µM,94 °C,,,,CNC(=C[N+](=O)[O-])NNc1cc(C(F)(F)F)cc(OCCSC)n1 [compound 189]
2 µM,3 µM,2.5 µM,165 °C (dec.),,,,CNC(=C[N+](=O)[O-])NNc1cc(C(F)(F)F)cc(C)n1 [compound 131]
1.7 µM,4.1 µM,2.9 µM,221 °C (dec.),,,,CNC(=C[N+](=O)[O-])NNc1cccc(Cl)n1 [compound 145]
8.1 µM,13.6 µM,10.9 µM,128 °C,,,,CCCCOCCOc1cc(C(F)(F)F)cc(NNC(=C[N+](=O)[O-])NC)n1 [compound 192]
37.8 µM,18.5 µM,28.2 µM,160 to 162 °C (dec.),,,,CNC(=C[N+](=O)[O-])NNc1cc(OC)nc(OC)n1 [compound 101]
10.1 µM,13.2 µM,11.7 µM,207 °C (dec.),,,,CNC(=C[N+](=O)[O-])NNc1ccc(C(F)(F)F)cn1 [Compound No. 19]
13.7 µM,19.1 µM,16.4 µM,199 °C (dec.),,,,CNC(=C[N+](=O)[O-])NN=C(C)c1ccncc1 [compound 38]

"IC50 [1, 2]","IC50 [1, 3]","IC50 [1, 4]",melting point,"IC50 [1, 5]","IC50 [1, 6]","IC50 [1, 7]",SMILES
11.8 µM,12.5 µM,12.2 µM,161 °C (dec.),,,,CCCCOc1cc(C(F)(F)F)cc(NNC(=C[N+](=O)[O-])NC)n1 [compound 178]
49.6 µM,49.4 µM,49.5 µM,155 °C (dec.),,,,CCOC(=O)c1ccc(NC(=C[N+](=O)[O-])NN)cc1 [compound 74]
,,,134 to 137 °C,29.5 µM,29 µM,29.3 µM,COc1ccc(NC(=C[N+](=O)[O-])SC)cn1 [Intermediate 49]
39.9 µM,33.5 µM,36.7 µM,148 °C,,,,COc1ccc(NC(=C[N+](=O)[O-])NN)cc1OC [compound 56]
0.82 µM,1.1 µM,0.96 µM,206 °C (dec.),,,,CNC(=C[N+](=O)[O-])NNc1ccc(Cl)cn1 [compound 172]
7 µM,5.6 µM,6.4 µM,138 °C,,,,CNC(=C[N+](=O)[O-])NNc1cc(OCCOC)cc(C(F)(F)F)c1 [compound 182]
16.1 µM,29.2 µM,22.7 µM,191 to 192 °C (dec.),,,,CNC(=C[N+](=O)[O-])NN(C)c1cccc(C(F)(F)F)n1 [compound 39]
13.9 µM,12.4 µM,13.2 µM,131 °C (dec.),,,,CNC(=C[N+](=O)[O-])NNc1cc(C(F)(F)F)cc(OCc2cccnc2)n1 [compound 123]
39.8 µM,39.4 µM,39.6 µM,154 °C (dec.),,,,CNC(=C[N+](=O)[O-])NNc1cc(C(F)(F)F)cc(OCc2ccco2)n1 [compound 120]
19.6 µM,26.8 µM,23.2 µM,192 to 193 °C (dec.),,,,CNC(=C[N+](=O)[O-])NNc1cc(C(F)(F)F)cc(C(F)(F)F)n1 [compound 44]
11.6 µM,,11.6 µM,170 °C (dec.),,,,CNC(=C[N+](=O)[O-])NNc1cc(C(F)(F)F)cc(OCCSc2ccccc2)n1 [compound 195]
9.4 µM,,9.4 µM,175 to 178 °C (dec.),,,,COCCNC(=C[N+](=O)[O-])NNc1cc(C(F)(F)F)cc(Cl)n1 [compound 160]
8.9 µM,10.7 µM,9.8 µM,201 to 202 °C (dec.),,,,NC(=C[N+](=O)[O-])NNc1cc(C(F)(F)F)cc(Cl)n1 [compound 103]
7.8 µM,,7.8 µM,188 to 189 °C,,,,CNC(=C[N+](=O)[O-])NN=Cc1ccc(C(F)(F)F)cc1 [compound 166]
21.3 µM,29.2 µM,25.3 µM,186 °C (dec.),,,,CNC(=C[N+](=O)[O-])NN=Cc1ccc(Cl)cc1 [compound 136]
20 µM,35.7 µM,27.9 µM,192 °C (dec.),,,,NNC(=C[N+](=O)[O-])NC1CCCC1 [compound 91]
7.7 µM,8.4 µM,8.1 µM,175 °C (dec.),,,,C=CCOc1cc(C(F)(F)F)cc(NNC(=C[N+](=O)[O-])NC)n1 [compound 130]

SMILES,"IC50 [1, 2]","IC50 [1, 3]","IC50 [1, 4]",melting point,"IC50 [1, 5]","IC50 [1, 6]","IC50 [1, 7]"
CSC(=C[N+](=O)[O-])Nc1ccc([N+](=O)[O-])cc1 [Intermediate 11],,,,180 °C,17.6 µM,15.9 µM,16.8 µM
CNC(=C[N+](=O)[O-])NNc1ccc([N+](=O)[O-])cc1 [compound 13],20.1 µM,16.1 µM,18.1 µM,186 °C (dec.),,,
